Data: patent US20240100079A1, “METHODS AND COMPOSITIONS FOR REGENERATING HAIR CELLS IN THE INNER EAR OF ADULT MAMMALS” (Massachusetts Eye and Ear Infirmary, priority 2021, published 2024)

What was measured:
[1] = system: adult wild-type mouse utricle; assay: Neomycin damage of cultured adult mouse utricle; type: cell-based; details: neomycin 4 mM for 5 days, vs untreated utricles
Protocol: Whole utricles were dissected from 4-week-old mice and cultured free-floating. Otoconia were removed using a gentle stream of phosphate-buffered saline (PBS) ejected from a 25G needle and syringe. Utricles were cultured in 1000 μL of media in untreated 24-well flat bottom plates. All cultures were maintained at 37° C. in 5% CO2/95% air.
Culture media consisted of Dulbecco's Modified Eagle's Medium/F12 (DMEM/F12, Invitrogen) with B27 and N2 supplement. Neomycin sulfate stock (10 mg/mL in 0.9% NaCl, from Sigma Aldrich) was diluted in culture media to 4 mM. Valproic acid (VPA) from Sigma was included at 2 mM, and siRNAs from Santa Cruz were included at 0.02 μM.

[2] = system: cultured adult mouse cochlea; assay: Hair cell regeneration in cultured adult wild-type mouse cochlea, reprogramming followed by ad-Atoh1 infection; type: cell-based; details: for reprogramming and regeneration of hair cells with another HDAC inhibitor in the cocktail instead of VPA: TSA 82.5 nM, SAHA 2 μM, Belinostat 1 μM with LiCl, FSK, siFIR, siMxi1, after Ad-Atoh1 infection
Protocol: Different from the neonatal cochlear culture method, in which the cochleae were disassociated from the bone, adult mouse whole cochleae (4-6 weeks old) were dissected with the bone attached. The bulla was first removed from the skull and dipped in 75% ethanol for 3 minutes before being placed in HBSS. The vestibular region was also removed. Under a dissecting microscope, the middle ear, vessels and the debris were removed from the bulla. The bone covering the apical turn was removed, and round window and oval window membranes were opened to allow media exchange with the cochlear fluids. The ligament portion and Reissner's membrane at each end of the cochlea were also removed to facilitate the access of medium to the sensory epithelial region. The cochleae were maintained in DMEM/F12 (Invitrogen) supplemented with N2 and B27 (both from Invitrogen) for 14-18 days. Ad-Atoh1 ad-Atoh1-mCherry adenoviruses were purchased from the SignaGen Laboratories, Rockville, MD, with titers of 6×10^10 pfu/ml.
In the rtTA/tet-Myc/tet-NICD mouse model, cochleae were treated with Dox (Sigma, 2 μg/ml final concentration); In the Sox2/tdT/rtTA/tet-Myc/tet-NICD mouse model, cochleae were treated with Dox (Sigma, 2 μg/ml final concentration) and 4-Hydroxytamoxifen (Tm, Sigma) (20 ng/ml); in the rtTA/tet-Myc and rtTA/tet-Myc/Atoh1-GFP mouse models, cochleae were treated with Dox (Sigma, 2 μg/ml final concentration) and VPA (2 mM); in the Sox2/tdT/rtTA/tet-Myc mouse model, cochleae were treated with 4-Hydroxytamoxifen (20 ng/ml), Dox (Sigma, 2 μg/ml) and VPA (Sigma, 2 mM); in the rtTA/tet-NICD mouse model, cochleae were treated with Dox (Sigma, 2 μg/ml final concentration), LiCl (Sigma, 8 mM), FSK (Tocris Bioscience, 20 μM), siFIR (Santa Cruz Bio-technology, 0.02 μM), and siMxi1 (Santa Cruz Bio-technology, 0.02 μM); in the Sox2/tdT/rtTA/tet-NICD mouse model, cochleae were treated with 4-Hydroxytamoxifen (20 ng/ml), Dox (Sigma, 2 μg/ml final concentration), LiCl (8 mM), Forskolin (FSK) (20 μM), siFIR (Puf 60, Gene ID: 67959) […], and siMxi1 (Gene ID: 17859) (0.02 μM); in the Atoh1-GFP mouse model, cochleae were treated with VPA (2 mM), LiCl (8 mM), FSK […], siFIR (0.02 μM), and siMxi1 (0.02 μM) for 4 days, followed by ad-Atoh1 (6×10^10 pfu/ml) infection overnight. siRNAs were delivered following the manufacturer's instructions (Polyplus-transfection; 89129-920). In cultured adult mouse cochleae, they were treated with HDAC inhibitor, Belinostat (1 μM, Medchemexpress), Trichostatin A (TSA)(82.5 nM, Medchemexpress), Vorinostat (SAHA)(2 μM; Medchemexpress), and Myc siRNA Fbxw7 (0.02 μM, Santa Cruz Biotechnology). The controls were cultured adult cochleae of the same genotype treated with vehicle (sterile water with 0.1% DMSO) plus ad-Atoh1. […]

| Molecule | reprogramming and regeneration of hair cells with another HDAC inhibitor in the cocktail instead of VPA [2] | further results |
| --- | --- | --- |
| Neomycin sulfate | – | utricle hair cells (MYO7A) after neomycin [1]: decreased total numbers of utricle HC; utricle hair cells (MYO7A) after neomycin ([1]; listed as Neomycin): loss of hair cells |
| O=C(CCCCCCC(=O)Nc1ccccc1)NO [SAHA, N-Hydroxy-N′-phenyloctanediamide] | sufficient to induce reprogramming and efficient regeneration of hair cells | – |
| CCCC(CCC)C(=O)[O-].[Na+] [VPA, Sodium 2-propylpentanoate] | – | HC (MYO7A+) regeneration ([2]; cultured adult WT cochlea, treatment followed by Ad-Atoh1 infection (FIG. 7B)): did not lead to HC (MYO7A) |
| O=C(/C=C/c1cccc(S(=O)(=O)Nc2ccccc2)c1)NO [Belinostat, belinostat] | sufficient to induce reprogramming and efficient regeneration of hair cells | – |
| CC(/C=C/C(=O)NO)=C\[C@@H](C)C(=O)c1ccc(N(C)C)cc1 [TSA, (2E,4E,6R)-7-(4-(Dimethylamino)phenyl)-N-hydroxy-4,6-dimethyl-7-oxo-2,4-heptadienamide] | sufficient to induce reprogramming and efficient regeneration of hair cells | – |
